The text below walks through data of US5897874A, “Expulsion of material from a delivery device” (R. P. Scherer Corporation, priority 1993, dated 1999).

A short description of the data set: Drug release/delivery (pulse) time of capsule in stirred purified water at 37° C., spectrophotometric. Format: physicochemical. The text has this: A coated gelatin capsule of the type shown in FIG. 1 was filled with hydrogel powder prepared as in Example 1 of particle size 425 to 710 microns, and metoclopramide drug included as a separate layer. The hydrogel powder was compacted leaving a 4.5 mm space between the top of the hydrogel layer 10 and the mouth of the body 6. The metoclopramide was placed on top and the body was sealed with a hydrogel plug. […] The nominal delivery time was three hours.
In order to assess the delivery time to release of the drug, each capsule was placed in a liter of purified water at 37° C. stirred with a paddle at 50 rpm. The presence of drug in the water was monitored spectrophotometrically.
The procedure was repeated with a capsule having a hydrogel plug designed to provide a nominal delivery time of five hours. […] The "space" represents the space between the top of the hydrogel layer and the mouth of the body after inclusion of the drug. The space allows insertion of the plug to its correct depth without interference from the hydrogel powder fill. In this case the hydrogel plug was recessed 0.5 mm below the upper end of the neck of the capsule body.
Drug release was monitored spectrophotometrically at 226 nm.

Where “and” joins values, the source holds several entries; their conditions need not be identical. Equal values may be shown once.

`CCN(CC)CCNC(=O)c1cc(Cl)c(N)cc1OC` [metoclopramide]: under “individual capsules 1 to 6, Example 2, hydrogel powder excipient, nominal delivery time three hours, 37° C., paddle 50 rpm”, the “Delivery Time” value was 3.25 h and 3.00 h. The mean delivery time (six capsules, Example 2, standard deviation 0.10, nominal three hours, hydrogel powder excipient) is 3.21 h. In turn, salbutamol sulphate returned a mean pulse time (Example 4, standard deviation of 0.1, nominal three hour pulse time, shorter plug, hydrogel excipient) of 3.29 h.
